Reference: patent US5250416A, “Method for highly sensitive determination of NADH using kinase” (Noda Institute for Scientific Rsearch, priority 1991, dated 1993)

Tests used:
[1] = test system: NADH kinase (the present enzyme); test: Inhibition, activation and stabilization of the present enzyme; type: biochemical, Pichia membranaefaciens
NADH kinase A = biological target: T1, NADH kinase A (Saccharomyces cerevisiae, UniProt Q06892); settings: as substrate of NADH kinase A; from reference; cited from earlier work
T1 sequence (Q06892 1-414): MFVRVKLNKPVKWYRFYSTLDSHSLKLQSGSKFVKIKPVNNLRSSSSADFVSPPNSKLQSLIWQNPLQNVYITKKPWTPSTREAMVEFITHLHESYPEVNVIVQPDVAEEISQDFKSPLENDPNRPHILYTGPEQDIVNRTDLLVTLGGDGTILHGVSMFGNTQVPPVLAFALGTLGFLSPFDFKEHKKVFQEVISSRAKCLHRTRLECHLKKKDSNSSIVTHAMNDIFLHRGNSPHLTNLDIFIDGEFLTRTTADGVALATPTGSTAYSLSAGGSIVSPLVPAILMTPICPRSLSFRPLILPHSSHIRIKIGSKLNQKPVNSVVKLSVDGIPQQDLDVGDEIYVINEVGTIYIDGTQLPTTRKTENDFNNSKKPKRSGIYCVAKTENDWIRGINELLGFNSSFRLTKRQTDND

NADH kinase B = biological target: T2, NADH kinase B (Saccharomyces cerevisiae, UniProt Q06892); settings: as substrate of NADH kinase B; from reference; cited from earlier work
T2 sequence (Q06892 1-414): T1 sequence (Q06892 1-414)

[2] = test system: NADH kinase (the present enzyme); test: Substrate specificity of the present enzyme (NADH kinase); type: biochemical, Pichia membranaefaciens; settings: for Relative activity (%): as substrate of the present enzyme, 30° C., 20 minutes, pH 8.5, relative to NADH = 100; for Action of the present enzyme on the substrate (in words): substrate specificity
Experimental: The substrate specificity of the present enzyme was examined under the following reaction conditions.
To 0.9 ml of each of the substrate solutions containing NADH or NAD^+, respectively, shown in Table 1 was added 0.1 ml of 23 U/ml of the present enzyme, and the reaction was carried out at 30° C. for 20 minutes. Then, the reaction was terminated by heat treatment at 100° C. for 2 minutes, and the denatured protein was removed, after which the amount of NADPH or NADP^+ produced by the reaction of the corresponding substrate was measured as follows. As a control solution, there was used a mixture of each substrate solution and the present enzyme in which the reaction had been terminated immediately after mixing them.
With 1 ml of each of the reaction solutions obtained in the above was mixed 1 ml of a color-producing solution consisting of 10 mM G-6-P, 50 mM HEPPS buffer (pH 8.0), 10 mM magnesium chloride, 0.1% bovine serum albumin, 2.5 IU/ml G-6-P dehydrogenase (NADP^+ -dependent), 5 IU/ml diaphorase and 250 μM 2,6-dichlorophenolindophenol. The resulting mixture was immediately introduced into a constant-temperature cuvette of STASAR III spectrophotometer of Gilford and subjected to reaction at 30° C. Simultaneously with the reaction, the change of absorbance at 600 nm was measured with the lapse of time, and the difference (ΔOD600nm /min) between absorbance values 1 minute and 2 minutes after the initiation of the coloration reaction was taken as a measured value. As to the relative activity (%), a measured value (ΔOD600nm /min) obtained by using NAD^+ as substrate was shown as a percentage based on a measured value (ΔOD600nm /min) obtained by using NADH as substrate.

[3] = test system: NADH kinase (the present enzyme); test: Km value (Michaelis constant) of the present enzyme for NADH; type: biochemical, Pichia membranaefaciens; settings: 30° C., pH 7.8 (Tris buffer)
Experimental: 0.9 Milliliters of the substrate solution containing NADH shown in Table 2 was preheated to 30° C., after which 0.1 ml of a solution of the present enzyme having an adequate concentration was added, and the reaction was carried out at 30° C. for 20 minutes. Thereafter, the reaction was terminated by heat treatment at 100° C. for 2 minutes, and the denatured protein was removed. Then, the amount of NADPH produced by the reaction of the substrate was measured as follows. As a control solution, there was used a mixture of the substrate solution and the present enzyme in which the reaction had been terminated immediately after mixing them.
With 1 ml of each of the reaction solutions obtained in the above was mixed 1 ml of a color-producing solution having the same composition as that of the color-producing solution described in the above item "Substrate specificity". […] Simultaneously with the reaction, the change of absorbance at 600 nm was measured with the lapse of time, and the difference (ΔOD600nm /min) between absorbance values 1 minute and 2 minutes after the initiation of the coloration reaction was obtained as a measured value. By the use of a calibration curve of ΔOD600nm /min versus NADPH concentration previously prepared using NADPH solutions of known concentrations, the amount of the NADPH produced was calculated from the measured value.

| Structure (SMILES) | Stabilization of the present enzyme [1] | Specificity (relative activity, NADH = 100) (NADH kinase A) | Specificity (relative activity, NADH = 100) (NADH kinase B) | Relative activity (%) [2] [%] | Action of the present enzyme on the substrate (in words) [2] | Km [3] [µM] |
| --- | --- | --- | --- | --- | --- | --- |
| O[C@H](CS)[C@H](O)CS (racemic) [dithiothreitol] | stabilized | – | – | – | – | – |
| CC(=O)N[C@@H](CS)C(=O)O [N-acetyl-L-cysteine] | stabilized | – | – | – | – | – |
| NC(=O)C1=CN([C@@H]2O[C@H](COP(=O)(O)OP(=O)(O)OC[C@H]3O[C@@H](n4cnc5c(N)ncnc54)[C@H](O)[C@@H]3O)[C@@H](O)[C@H]2O)C=CC1 [NADH] | – | 100 | 100 | 100 | very high specificity | 27 |
| NC(=O)c1ccc[n+]([C@@H]2O[C@H](COP(=O)([O-])OP(=O)(O)OC[C@H]3O[C@@H](n4cnc5c(N)ncnc54)[C@H](O)[C@@H]3O)[C@@H](O)[C@H]2O)c1 [NAD^+] | – | 1.7 | 1.6 | 0.9 | hardly acts | – |
